Test results taken from ChEMBL document CHEMBL1201862, “PubChem BioAssay data set” (2004).
The source made the active and inactive calls.

Assays:
[1] = biological target: T1, Cytochrome P450 3A4 (Homo sapiens, UniProt P08684); conditions: Potency
[2] = intracellular Trypanosoma cruzi inhibitors in host cells – cell-based, plate reader, cherry-pick samples, set 3, dose response (AID 651818); type: functional;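 further: compounds incubated with infected cells for about four days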
[3] = biological target: Cytochrome P450 2D6 (Homo sapiens, UniProt P10635);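 further: CYP2D6 member of a cytochrome P450 panel assay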
Sequence of Cytochrome P450 2D6 (P10635 whole entry): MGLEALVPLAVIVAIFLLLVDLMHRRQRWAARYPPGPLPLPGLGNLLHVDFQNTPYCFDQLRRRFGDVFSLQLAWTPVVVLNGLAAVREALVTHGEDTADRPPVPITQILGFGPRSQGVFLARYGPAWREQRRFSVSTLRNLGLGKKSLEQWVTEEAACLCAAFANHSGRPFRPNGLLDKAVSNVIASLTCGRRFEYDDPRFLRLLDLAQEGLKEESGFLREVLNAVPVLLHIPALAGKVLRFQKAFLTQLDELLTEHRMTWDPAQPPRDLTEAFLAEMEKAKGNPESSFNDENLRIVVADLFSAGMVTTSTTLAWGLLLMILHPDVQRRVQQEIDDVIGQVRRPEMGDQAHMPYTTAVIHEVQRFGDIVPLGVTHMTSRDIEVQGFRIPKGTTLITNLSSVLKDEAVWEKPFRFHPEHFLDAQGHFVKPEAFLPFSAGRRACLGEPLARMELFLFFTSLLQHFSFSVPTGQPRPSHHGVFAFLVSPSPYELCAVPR

[4] = biological target: T2, Protein skinhead-1 (Caenorhabditis elegans, UniProt P34707); type: functional
T2 sequence (P34707 whole entry): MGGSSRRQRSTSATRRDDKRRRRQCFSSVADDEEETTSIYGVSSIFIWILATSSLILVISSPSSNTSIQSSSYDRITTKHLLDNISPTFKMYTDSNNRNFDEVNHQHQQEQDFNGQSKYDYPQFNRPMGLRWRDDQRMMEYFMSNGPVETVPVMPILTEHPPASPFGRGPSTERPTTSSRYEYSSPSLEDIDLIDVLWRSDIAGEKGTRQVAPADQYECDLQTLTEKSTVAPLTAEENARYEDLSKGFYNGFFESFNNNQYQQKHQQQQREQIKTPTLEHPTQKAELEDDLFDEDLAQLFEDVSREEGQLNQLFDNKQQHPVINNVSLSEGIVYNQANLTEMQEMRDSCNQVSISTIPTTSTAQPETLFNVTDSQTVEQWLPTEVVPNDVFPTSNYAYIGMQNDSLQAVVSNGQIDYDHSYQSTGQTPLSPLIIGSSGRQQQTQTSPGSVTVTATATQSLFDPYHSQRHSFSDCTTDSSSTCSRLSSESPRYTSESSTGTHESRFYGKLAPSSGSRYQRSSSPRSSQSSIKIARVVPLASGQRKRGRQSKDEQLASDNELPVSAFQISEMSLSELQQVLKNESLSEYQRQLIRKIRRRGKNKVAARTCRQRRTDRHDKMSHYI

[5] = biological target: T1, Cytochrome P450 3A4
[6] = A cytotoxicity screen of small molecule inhibitors of the PhoP region in Salmonella typhi identified in the primary screen. [Related pubchem assays: 1850, 1864, 1985 ]; type: functional
[7] = cytotoxicity in HEK-293T cells, dose response, cytotoxicity control for TCR NF-kB inhibitor project, luminescence, T-cell screen hits (AID 489026); type: functional, cell-based;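 further: cells exposed to compound about 14 hours before the viability readout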
[8] = HEp-2 cell cytotoxicity, dose response, cytotoxicity control for RSV inhibitor project, HTS (AID 2410); type: functional; conditions: human respiratory syncytial virus
[9] = biological target: T3, Leucine aminopeptidase (Plasmodium falciparum 3D7, UniProt Q8IL11); experiment: P. falciparum M17LAP inhibitors, primary screen, biochemical, fluorogenic H-Leu-NHMec substrate, 1536-well (AID 1619); type: functional
T3 sequence (Q8IL11 whole entry): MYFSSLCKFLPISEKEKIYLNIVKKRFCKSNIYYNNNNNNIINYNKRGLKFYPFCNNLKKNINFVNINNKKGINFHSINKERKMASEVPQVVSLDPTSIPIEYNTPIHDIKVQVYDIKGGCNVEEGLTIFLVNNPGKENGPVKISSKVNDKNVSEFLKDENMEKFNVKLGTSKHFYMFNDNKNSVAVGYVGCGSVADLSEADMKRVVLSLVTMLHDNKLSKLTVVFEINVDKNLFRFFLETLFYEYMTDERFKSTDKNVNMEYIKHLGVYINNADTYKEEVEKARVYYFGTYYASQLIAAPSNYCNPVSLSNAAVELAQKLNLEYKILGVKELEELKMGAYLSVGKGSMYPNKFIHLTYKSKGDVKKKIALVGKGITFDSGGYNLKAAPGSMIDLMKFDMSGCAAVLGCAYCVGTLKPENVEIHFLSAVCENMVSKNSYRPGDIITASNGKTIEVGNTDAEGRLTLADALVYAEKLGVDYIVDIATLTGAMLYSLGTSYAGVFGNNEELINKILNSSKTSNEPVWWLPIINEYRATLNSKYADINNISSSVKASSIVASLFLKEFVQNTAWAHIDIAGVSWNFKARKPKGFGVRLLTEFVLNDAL

[10] = biological target: T4, Protein RecA (Mycobacterium tuberculosis, UniProt P9WHJ3); experiment: Fluorescence Cell-Free Homogeneous Dose Retest to Identify Inhibitors of RecA-Intein Splicing Activity. [Related pubchem assays (depositor defined):AID2097, AID2223, AID489010, AID492950]; type: functional
T4 sequence (P9WHJ3 whole entry): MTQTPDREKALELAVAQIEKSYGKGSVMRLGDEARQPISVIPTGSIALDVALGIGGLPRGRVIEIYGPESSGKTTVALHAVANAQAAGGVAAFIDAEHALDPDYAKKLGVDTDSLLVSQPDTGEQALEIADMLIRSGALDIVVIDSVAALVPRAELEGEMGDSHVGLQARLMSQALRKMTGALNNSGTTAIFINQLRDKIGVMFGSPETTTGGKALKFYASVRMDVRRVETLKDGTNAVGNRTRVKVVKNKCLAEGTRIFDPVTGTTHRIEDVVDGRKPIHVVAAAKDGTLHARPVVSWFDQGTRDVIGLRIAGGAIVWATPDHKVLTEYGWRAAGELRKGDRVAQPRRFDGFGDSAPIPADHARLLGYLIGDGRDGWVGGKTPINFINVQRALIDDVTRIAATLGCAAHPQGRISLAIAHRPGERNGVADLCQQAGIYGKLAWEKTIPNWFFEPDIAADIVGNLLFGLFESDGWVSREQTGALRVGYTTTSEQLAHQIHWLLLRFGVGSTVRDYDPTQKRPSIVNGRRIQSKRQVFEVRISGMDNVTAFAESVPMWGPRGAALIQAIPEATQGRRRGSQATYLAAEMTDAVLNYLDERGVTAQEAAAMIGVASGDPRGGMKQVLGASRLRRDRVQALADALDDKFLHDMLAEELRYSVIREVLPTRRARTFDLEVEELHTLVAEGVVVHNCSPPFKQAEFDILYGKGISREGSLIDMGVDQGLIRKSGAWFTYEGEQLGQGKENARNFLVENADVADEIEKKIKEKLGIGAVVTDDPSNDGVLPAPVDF

[11] = biological target: T5, Replicative DNA helicase DnaB (Mycobacterium tuberculosis, UniProt P9WMR3); experiment: DnaB intein splicing inhibitors, dose response, biochemical, cell-free fluorescence (AID 449749); type: functional
T5 sequence (P9WMR3 whole entry): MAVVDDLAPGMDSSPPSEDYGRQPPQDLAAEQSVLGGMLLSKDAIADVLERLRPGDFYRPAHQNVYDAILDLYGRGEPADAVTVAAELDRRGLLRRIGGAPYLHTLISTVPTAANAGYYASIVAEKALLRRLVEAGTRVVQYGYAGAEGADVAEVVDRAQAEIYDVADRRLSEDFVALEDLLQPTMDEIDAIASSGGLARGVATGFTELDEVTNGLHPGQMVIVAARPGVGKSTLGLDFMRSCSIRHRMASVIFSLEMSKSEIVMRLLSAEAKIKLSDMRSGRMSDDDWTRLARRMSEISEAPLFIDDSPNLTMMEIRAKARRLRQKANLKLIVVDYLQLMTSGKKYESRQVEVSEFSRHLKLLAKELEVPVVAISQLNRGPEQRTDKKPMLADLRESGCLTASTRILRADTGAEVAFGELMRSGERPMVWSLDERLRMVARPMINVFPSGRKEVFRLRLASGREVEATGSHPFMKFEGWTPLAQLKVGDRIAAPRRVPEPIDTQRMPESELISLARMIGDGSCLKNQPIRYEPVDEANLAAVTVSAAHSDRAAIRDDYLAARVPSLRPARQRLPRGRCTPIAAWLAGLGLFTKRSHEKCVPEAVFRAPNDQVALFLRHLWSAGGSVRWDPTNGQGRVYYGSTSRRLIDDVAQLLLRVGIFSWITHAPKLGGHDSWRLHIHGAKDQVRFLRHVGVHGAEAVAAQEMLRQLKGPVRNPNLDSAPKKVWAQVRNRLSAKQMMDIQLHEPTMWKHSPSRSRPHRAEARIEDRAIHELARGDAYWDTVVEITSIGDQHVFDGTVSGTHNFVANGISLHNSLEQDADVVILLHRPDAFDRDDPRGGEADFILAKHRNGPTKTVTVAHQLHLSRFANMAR

[12] = biological target: T6, Calpain-2 catalytic subunit (Sus scrofa, UniProt P43367); experiment: pig calpain II inhibitor potency, dose response, biochemical, fluorogenic peptide substrate (AID 1420); type: functional
T6 sequence (P43367 whole entry): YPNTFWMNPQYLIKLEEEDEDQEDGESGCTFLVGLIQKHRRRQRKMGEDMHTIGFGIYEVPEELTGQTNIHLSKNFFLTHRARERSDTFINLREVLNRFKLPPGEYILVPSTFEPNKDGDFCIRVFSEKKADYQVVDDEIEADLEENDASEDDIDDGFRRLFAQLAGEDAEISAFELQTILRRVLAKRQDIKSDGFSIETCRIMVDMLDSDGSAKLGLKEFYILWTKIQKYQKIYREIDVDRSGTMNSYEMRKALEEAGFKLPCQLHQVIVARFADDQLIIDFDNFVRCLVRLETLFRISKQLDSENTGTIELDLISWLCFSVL

T1 sequence (P08684 whole entry): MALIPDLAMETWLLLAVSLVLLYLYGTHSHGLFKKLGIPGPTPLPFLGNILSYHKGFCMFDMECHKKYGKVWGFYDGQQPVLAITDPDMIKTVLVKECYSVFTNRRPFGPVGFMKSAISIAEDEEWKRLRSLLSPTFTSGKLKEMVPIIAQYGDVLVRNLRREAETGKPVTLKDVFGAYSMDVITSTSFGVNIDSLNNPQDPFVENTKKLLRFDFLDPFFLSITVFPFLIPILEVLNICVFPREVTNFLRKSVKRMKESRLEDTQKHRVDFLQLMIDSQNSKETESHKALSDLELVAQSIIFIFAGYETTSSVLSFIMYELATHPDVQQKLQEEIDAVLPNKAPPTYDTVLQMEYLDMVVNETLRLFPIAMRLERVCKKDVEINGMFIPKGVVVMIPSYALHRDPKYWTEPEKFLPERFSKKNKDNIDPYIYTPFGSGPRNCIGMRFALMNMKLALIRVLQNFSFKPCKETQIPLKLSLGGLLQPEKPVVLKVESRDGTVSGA

## CCC12C=CCN3CCC4(c5ccc(OC)cc5N(C)C4[C@@](O)(C(=O)OC)C1OC(C)=O)C32 (some centres not stated)
[1]
  AC50: 3.98 µM (inconclusive)

## C[C@@H]1CN([C@@H](C)CO)C(=O)c2cccc(NC(=O)Nc3ccc4c(c3)OCO4)c2O[C@@H]1CN(C)Cc1ccc(C(=O)Nc2ccccc2N)cc1
[2]
  AC50: 3.18 µM (active)

## CC1CCc2c(C(=O)Nc3nccs3)csc2C1 (configuration not stated)
[3]
  AC50: 3.55 µM (inconclusive)
[4]
  IC50: > 100 µM (inactive)

## O=C(NC(=S)Nc1cccc2c(O)cccc12)c1cccc(Br)c1
[4]
  IC50: > 100 µM (inactive)

## O=C(Cn1c(C(F)(F)F)nc2ccccc21)c1ccc(F)cc1
[4]
  IC50: > 100 µM (inactive)
[5]
  AC50: 12.6 µM (inconclusive)

## CC(=O)OC1CC2C(C)(C)C(=O)[C@@H]3OC3[C@@]2(C)C2CC[C@]3(C)C(=CC(=O)OC3c3ccoc3)[C@]12C (some centres not stated)
[1]
  AC50: 15.8 µM (inconclusive)

## C[C@@H]1CCCCO[C@H](CN(C)Cc2ccc(C(=O)Nc3ccccc3N)cc2)[C@@H](C)CN([C@H](C)CO)C(=O)c2cc(NS(=O)(=O)c3ccc(F)cc3)ccc2O1
[2]
  AC50: 1.83 µM (active)

## COC(=O)c1ccc(NC(=O)CO/N=C2\CCCc3nonc32)cc1
[6]
  EC50: > 50 µM (active)

## COC(=O)CCC(=O)NC(=S)Nc1sc(C)c(C)c1C(N)=O
[7]
  IC50: > 80 µM (inactive)

## O=C(Nc1nc2ccccc2s1)c1ccccc1
[4]
  IC50: > 100 µM (inactive)

## CNC[C@H]1Oc2c(NC(=O)Nc3ccc(OC)cc3)cccc2C(=O)N([C@H](C)CO)C[C@@H]1C
[2]
  AC50: 20 µM (inactive)

## Cc1ccc(-c2cc(C(F)F)n3ncc(C(=O)N4CCN(c5cccc(C)c5C)CC4)c3n2)cc1
[8]
  CC50: 10.2 µM (active)
[4]
  IC50: > 100 µM (inactive)

## O=C(c1ccco1)c1c[nH]nc1-c1ccc(Cl)cc1O
[9]
  IC50: 101 µM (active)

## Cc1nnc(SCC(=O)Nc2cc(S(=O)(=O)N3CCCC3)ccc2Cl)s1
[6]
  EC50: > 50 µM (active)

## C/C=C(\C)C(=O)N[C@@H](c1ccccc1)[C@@H](O)C(=O)O[C@H]1C[C@@]2(O)[C@@H](OC(=O)c3ccccc3)C3[C@](C)(C(=O)[C@H](OC(C)=O)C(=C1C)C2(C)C)[C@@H](O)C[C@H]1OC[C@@]31OC(C)=O (some centres not stated)
[7]
  IC50: > 80 µM (inactive)

## C[C@@H]1CN([C@@H](C)CO)C(=O)c2cccc(NC(=O)Nc3ccc(C(F)(F)F)cc3)c2O[C@@H]1CN(C)Cc1ccc(C(=O)Nc2ccccc2N)cc1
[2]
  AC50: 0.787 µM (active)

## COc1ccc(OC2C=CC(c3ccccc3)OC2CO)c(C(C)=O)c1 (configuration not stated)
[1]
  AC50: 3.98 µM (inconclusive)

## COc1ccc(C2OCC3(COC(C)=O)C(C)C=C(C)C2C3C)cc1 (configuration not stated)
[1]
  AC50: 15.8 µM (inconclusive)

## CCN(CC)C(=O)C(=O)c1cn(CC(=O)N2CCc3ccccc3C2)c2ccccc12
[6]
  EC50: > 50 µM (active)

## C[C@@H]1CN([C@H](C)CO)C(=O)Cc2cc(NC(=O)Nc3ccc4c(c3)OCO4)ccc2O[C@@H]1CN(C)Cc1ccc(Oc2ccccc2)cc1
[2]
  AC50: 2.87 µM (active)

## N#CC1=C(N)Oc2nc(-c3ccccc3)[nH]c2C1c1cccnc1 (configuration not stated)
[10]
  EC50: 2.6 µM (active)
[9]
  IC50: 66.6 µM (active)
[11]
  AC50: 11.3 µM (active)

## Oc1ccccc1O [CATECHOL]
[1]
  AC50: 10 µM (inconclusive)

## CCOc1ccc(NC(=O)CSc2n[nH]c(N)n2)c([N+](=O)[O-])c1
[9]
  IC50: 12.7 µM (active)

## Cn1c(NC(=O)/C=C\c2ccccc2)cc(=O)n(C)c1=O
[12]
  IC50: 7.1 µM (not active)
[9]
  IC50: 78.4 µM (active)

## Cc1nc(N2CCOCC2)c2nc(-c3ccccc3)n(CCCN3CCCCC3C)c2n1 (configuration not stated)
[1]
  AC50: 15.8 µM (inconclusive)

## O=C1CSC(=S)N1c1cccc(O)c1
[6]
  EC50: > 50 µM (active)

## CC(=O)OC1=C(O)C(=O)c2ccccc2C1=O
[6]
  EC50: > 50 µM (active)

## COc1ccc(C(=O)c2oc3ccc(OC)cc3c2N)cc1
[4]
  IC50: > 100 µM (inactive)

## COc1nccnc1NS(=O)(=O)c1ccc(/N=C/c2c(C)[nH]n(-c3ccccc3)c2=O)cc1
[9]
  IC50: 35 µM (active)

## O=C(C[n+]1ccc(-c2ccccc2)cc1)Nc1ccc([N+](=O)[O-])cc1
[6]
  EC50: > 50 µM (active)

## O=S(=O)(Nc1ncccn1)c1ccc(NC(=S)Nc2ccc(Cl)cc2)cc1
[6]
  EC50: > 50 µM (active)
